The values below come from patent US12054495B2, “Substituted macrocyclic compounds and related methods of treatment” (Alkermes, Inc., priority 2019, dated 2024).

The subject of one series is MDR1. In words: MDCK-MDR1 permeability assay. Format: in vitro ADME. To be noted: dog; for Papp A→B at 2 h, 3 μM: MDCK-MDR1, MDCK-MDR1 cells, apical to basolateral, 3 μM test compound, 2 hours at 37 degrees C; for efflux ratio at 2 h, 3 μM: MDCK-MDR1, Papp (basolateral to apical) divided by Papp (apical to basolateral), MDCK-MDR1 cells, read-out: Efflux ratio (ER). Here is the method:
The bidirectional permeability (Apical to Basal and Basal to Apical directions) of test compounds in MDCK-MIDR1 cells were evaluated using MDCK-MIDR1 cells seeded in Solvo PreadyPort™ MIDCK 96-well plate. Once the plate was received from ReadyCell (Barcelona, Spain), it was treated as per PreadyPort™ user's manual.
For the Apical to Basolateral (A→B) permeability, 80 μL of test compound (3 μM) co-dosed with LY (Lucifer Yellow) (100 μM) in HBSS (Hank's Balanced Salt Solution) assay buffer was added to the donor side (A) while 250 μL of HBSS buffer was added to the receiver side (B). For the Basolateral to Apical (B→A) permeability, 255 μL of test compound (3 μM) in HBSS assay buffer was added to the donor side (B) while 75 μL of HBSS buffer containing LY (100 μM) was added to the receiver side (A).
The plate was placed in an incubator set at 37 degrees C. After 10 minutes of pre-warming, 5 μL aliquot was taken from donor compartment and set aside as the dosing solution. The MDCK-MDR1 incubation plate was placed back into the incubator for 2 hours of incubation at 37 degrees C. After 2 hours of incubation, 25 μL and 5 μL aliquots were removed from the receiver and donor sides, respectively. To the 5 μL aliquots taken from the donor sides (before and after a 2-hour incubation) were diluted with 20 μL of the HBSS buffer. All samples were mixed with 150 μL with acetonitrile containing internal standard (IS) and 200 μL water, and analyzed by LC-MS/MS.
The apparent permeability (Papp) was calculated using the following formula: Papp=dQ/dt×1/A×C0 where: • dQ/dt: amount of translocated material over incubation time (nmol/s) • A: area of insert (0.14 cm^2 for PreadyPort™ MDR1-96) • C0: initial concentration of product applied in apical (A→B) or basal (B→A) compartment (nmol/mL)
The efflux ratio (ER) was measured by dividing the Papp (basolateral to apical direction) by Papp (apical to basolateral direction). It is a general measure of the involvement of active processes. An ER>2 is considered positive for active transport.
The data reported in Table 3 were obtained according to the MDCK-MIDR1 permeability assay described above.

Series [1] can be described thus: Hepatocytes stability assay (human hepatocytes). Format: in vitro ADME. To be noted: both sexes, cryopreserved hepatocytes, 1 μM test compound, 1×10^6 cell/mL, 37 degrees C, read-out: CLint (μL/min/million cells). The procedure:
(§1) In vitro metabolic stability was assessed using cryopreserved hepatocytes from male Sprague Dawley rats and a pool of 50 mixed gender humans (BioIVT, Baltimore, MD). The incubation mixtures were prepared by mixing 250 μL of pre-warmed KHB (Krebs-Henseleit buffer) containing 2×10^6 cell/mL of hepatocytes with 250 μL of pre-warmed KHB buffer containing 2 μM of test compounds in a 48-well plate, giving a final concentration of 1 μM test compound (0.1% DMSO) and 1×10^6 cell/mL of hepatocytes. The reaction mixture was incubated at 37 degrees C. A 50 μL aliquot of incubation mixture was taken at time points (0, 15, 30, 60, 120 and 240 minutes) and transferred into a 96-well plate containing 300 μL ice-cold acetonitrile (containing 30 ng/mL of labetalol and 10 ng/mL of Naltrexone-d3 as internal standards) and immediately placed in ice to terminate the reaction. Samples were centrifuged, and supernatants were transferred into 96-well plates for liquid chromatography with tandem mass spectrometry (LC-MS/MS) analysis to monitor the depletion of the test compound.
(§2) Data was calculated as percent remaining by assuming zero-minute time point peak area ratio (analyte/IS) as 100% and dividing remaining time point peak area ratios by zero-minute time point peak area ratio. Data were fitted to a first-order decay model to determine half-life. From a plot of log (ln) peak area against time, the slope of the line was determined. Subsequently, half-life (T1/2) and intrinsic clearance (CLint) were calculated using the equations below: Elimination rate constant (k)=(−slope) Half-life (T1/2)min=0.693/k Intrinsic Clearance (CLint) (mL/min/million cells)=(V×0.693)/T1/2 V=incubation volume mL/number of cells The in vitro T1/2 was converted to in vitro intrinsic clearance (CLint,hep) in units of mL/min/kg using the formula shown below:
(§3) [formula] The in vitro intrinsic clearance (CLint,hep) was scaled to in vivo hepatic clearance (CL,hep) using the following equation which was adapted from a well-stirred model.
(§4) [formula] where Q is the liver blood flow and fu is the fraction unbound (assumed to be unity in this case). All parameters used in the calculation are shown below (Table 4).
(§5) The extraction ratio (ER) was calculated by dividing the hepatic clearance of a compound to the liver blood flow. The data reported in Table 5 were obtained according to the human hepatocytes stability assay described above.

A further series concerns human hepatocytes. Put plainly: Hepatocytes stability assay (human hepatocytes). It counts as in vitro ADME. To be noted: scaled hepatic clearance divided by liver blood flow, fu assumed unity. Here is the method:
as §1, §2, §3, §4, §5

In series [2] the target is T1, human orexin-2 receptor (OX2R) (Homo sapiens, UniProt O43614).
T1 construct: expressed in transfected cells
T1 sequence (O43614 1-444): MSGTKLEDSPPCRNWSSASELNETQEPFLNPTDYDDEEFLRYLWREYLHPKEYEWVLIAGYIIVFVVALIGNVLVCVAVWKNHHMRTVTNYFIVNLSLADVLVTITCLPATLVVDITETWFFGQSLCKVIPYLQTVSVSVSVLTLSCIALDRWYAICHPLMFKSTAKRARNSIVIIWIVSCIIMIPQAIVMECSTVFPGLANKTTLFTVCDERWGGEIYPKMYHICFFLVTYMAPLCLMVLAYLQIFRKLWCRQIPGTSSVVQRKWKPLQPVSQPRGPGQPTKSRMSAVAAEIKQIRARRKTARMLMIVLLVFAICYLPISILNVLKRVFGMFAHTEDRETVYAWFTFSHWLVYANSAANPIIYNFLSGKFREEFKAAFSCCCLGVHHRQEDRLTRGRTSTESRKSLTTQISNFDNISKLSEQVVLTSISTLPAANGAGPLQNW
Put plainly: Human OX2R IP1 assay. Conditions: T-Rex CHO cells stably overexpressing human OX2R, IP1 accumulation, 1 hr at 37 degrees C; mean EC50; ∧ = racemic mixture. It counts as cell-based. The procedure:
T-Rex CHO cells stably overexpressing the human orexin-2 receptor (OX2R) were induced overnight with 1 μg/mL of doxycycline in a T225 flask. 24 hours post induction, cells were lifted with accutase and plated into a 384-well proxy plate at 30,000 cells/well. Cells were then treated with different test compounds in 1× stimulation buffer containing 10 mM Hepes, 1 mM CaCl2), 0.5 mM MgCl2, 4.2 mM KCl, 146 mM NaCl, 5.5 mM glucose, and 50 mM LiCl, pH 7.4, for 1 hr at 37 degrees C. Following incubation, the reaction was terminated by the addition of detection mix, which is composed of IP1-d2 and anti-IP1-cryptate diluted in lysis buffer as well as 1× stimulation buffer. The plates were allowed to incubate for 1 hour at room temperature and were then read in the EnVision® multimode plate reader, measuring inositol phosphate levels.
Cisbio IP1 is a cell-based functional assay quantifying the accumulation of inositol monophosphate (IP), a metabolite released as a result of orexin 2 receptor activation through the phospholipase C-Gq signaling pathway. This is a competitive immunoassay in which the IP1 produced by the cells upon receptor activation competes with the IP1 analog coupled to the d2 fluorophore (acceptor) for binding to an anti-IP1 monoclonal antibody labeled with Eu cryptate (donor). The measured HTRF-FRET based signal is inversely proportional to the IP1 concentration produced.
The EC50 values reported in Table 2 were obtained according to the human OX2R IP1 assay described above. Data are the mean EC50 values ±S.E.M. The compound methyl (2R,3S)-3-((methylsulfonyl)amino)-2-(((cis-4-phenylcyclohexyl)oxy)methyl)-piperidine-1-carboxylate is a reference compound which is disclosed in Example 5 of PCT publication no. WO2017/135306.

Broadly, the Papp A→B is the apparent permeability from the apical to the basolateral side of a cell layer. The EC50 is the concentration at which the effect is half-maximal.

Take `CS(=O)(=O)N[C@H]1CCCN2C(=O)CCOc3ccccc3C3CCC(CC3)OCC12` (stereo partly shown) [Compound 1]: in the series on MDR1, the Papp A→B at 2 h, 3 μM was found to be 0.15 ×10⁻⁶ cm/s and the efflux ratio at 2 h, 3 μM was above 100. Besides, the hepatocyte CLint at 1 μM in series [1] was determined as 14 µL/min/1e6 cells. Moreover, the “Extraction Ratio (ER)” value in the series with human hepatocytes is 0.67.
In the case of `CS(=O)(=O)N[C@H]1CCCN2C(=O)CCCCOc3ccccc3C3CCC(CC3)OCC12` (stereo partly shown) [Compound 3], in the series on MDR1, the Papp A→B at 2 h, 3 μM amounted to 0.8 ×10⁻⁶ cm/s and the efflux ratio at 2 h, 3 μM came to 34. Moreover, in series [1], the hepatocyte CLint at 1 μM was 43 µL/min/1e6 cells. Further, the “Extraction Ratio (ER)” value in the series with human hepatocytes turned out to be 0.87.
With `CS(=O)(=O)N[C@H]1CCCN2C(=O)CCCOc3ccccc3C3CCC(CC3)OCC12` (stereo partly shown) [Compound 4], in the series with MDR1, the Papp A→B at 2 h, 3 μM worked out at 0.47 ×10⁻⁶ cm/s and the efflux ratio at 2 h, 3 μM is 97. Moreover, the hepatocyte CLint at 1 μM in series [1] was found to be 28 µL/min/1e6 cells. Moreover, the “Extraction Ratio (ER)” value in the series on human hepatocytes is recorded as 0.81.
In the case of `CS(=O)(=O)N[C@H]1CCCN2CCCOc3ccccc3C3CCC(CC3)OCC12` (stereo partly shown) [Compound 5], the hepatocyte CLint at 1 μM in series [1] amounted to 63 µL/min/1e6 cells. In addition, the “Extraction Ratio (ER)” value with human hepatocytes was found to be 0.90.
Regarding `CS(=O)(=O)N[C@H]1CCCN2CCOc3ccccc3C3CCC(CC3)OCC12` (stereo partly shown) [Compound 6], in the series with MDR1, the Papp A→B at 2 h, 3 μM was found to be 21 ×10⁻⁶ cm/s and the efflux ratio at 2 h, 3 μM worked out at 0.66. Moreover, in series [1], the hepatocyte CLint at 1 μM is 45 µL/min/1e6 cells. Moreover, in the series on human hepatocytes, the “Extraction Ratio (ER)” value amounted to 0.87.
For `CS(=O)(=O)N[C@H]1CCCN2C(=O)CCc3ccccc3C3CCC(CC3)OCC12` (stereo partly shown) [Compound 10], in that order: 0.29 ×10⁻⁶ cm/s, 15, 8.3 µL/min/1e6 cells and 0.55.
For `CS(=O)(=O)N[C@H]1CCCN2C(=O)COc3c(F)cccc3C3CCC(CC3)OCC12` (stereo partly shown) [Compound 11], in that order: 2.2 ×10⁻⁶ cm/s, 5.5, 33 µL/min/1e6 cells and 0.83.
For `CS(=O)(=O)N[C@H]1CCCN2CCOc3c(F)cccc3C3CCC(CC3)OCC12` (stereo partly shown) [Compound 13], in that order: 26 ×10⁻⁶ cm/s, 0.55, 47 µL/min/1e6 cells and 0.88.
Take `CS(=O)(=O)N[C@H]1CCN2C(=O)COc3ncccc3C3CCC(CC3)OCC12` (stereo partly shown) [Compound 18]: in the series with MDR1, the Papp A→B at 2 h, 3 μM came to 3.9 ×10⁻⁶ cm/s and the efflux ratio at 2 h, 3 μM was found to be 2. Also, in series [1], the hepatocyte CLint at 1 μM was 23 µL/min/1e6 cells. Further, in the series on human hepatocytes, the “Extraction Ratio (ER)” value worked out at 0.77.
As to `CC1(C)Oc2ccccc2C2CCC(CC2)OCC2[C@@H](NS(C)(=O)=O)CCCN2C1=O` (stereo partly shown) [Compound 36], in the series on MDR1, the Papp A→B at 2 h, 3 μM is 2 ×10⁻⁶ cm/s and the efflux ratio at 2 h, 3 μM turned out to be 9.5. Besides, in series [1], the hepatocyte CLint at 1 μM came out at 66 µL/min/1e6 cells. The “Extraction Ratio (ER)” value in the series on human hepatocytes is 0.91.
The corresponding values for `CS(=O)(=O)N[C@H]1CCN2CCOc3ccccc3C3CCC(CC3)OCC12` (stereo partly shown) [Compound 39] are 24 ×10⁻⁶ cm/s, 0.49, 47 µL/min/1e6 cells and 0.88.
The corresponding values for `CS(=O)(=O)N[C@H]1CCCN2C(=O)C(F)(F)Oc3ccccc3C3CCC(CC3)OCC12` (stereo partly shown) [Compound 40] are 3.6 ×10⁻⁶ cm/s, 5.1, 65 µL/min/1e6 cells and 0.91.
As for `CS(=O)(=O)N[C@H]1CCCN2CC(F)(F)Oc3ccccc3C3CCC(CC3)OCC12` (stereo partly shown) [Compound 41], the hepatocyte CLint at 1 μM in series [1] was determined as 60 µL/min/1e6 cells. In addition, in the series on human hepatocytes, the “Extraction Ratio (ER)” value is reported as 0.90.
Take `CS(=O)(=O)N[C@H]1CCCN2C(=O)COc3nnccc3[C@H]3CC[C@H](CC3)OC[C@@H]12` [Compound 56]: the EC50 in series [2] was 100 to 1000 nM.
For `CS(=O)(=O)N[C@H]1CCCN2C(=O)COc3ccc(Br)cc3[C@H]3CC[C@H](CC3)OC[C@@H]12` [Compound 57], in series [2], the EC50 is below 100 nM.
With `CS(=O)(=O)N[C@H]1CCCN2CCOc3c(F)cc(F)cc3[C@H]3CC[C@H](CC3)OC[C@@H]12` [Compound 58], in series [2], the EC50 fell in the range of 100 to 1000 nM.
On the same count and under the same terms, the result for `CS(=O)(=O)N[C@H]1CCCN2CC(F)(F)Oc3c(F)cc(F)cc3[C@H]3CC[C@H](CC3)OC[C@@H]12` [Compound 59] reads 100 to 1000 nM.
Take `CS(=O)(=O)N[C@H]1CCCN2CCOc3ccc(Cl)cc3[C@H]3CC[C@H](CC3)OC[C@@H]12` [Compound 61]: the EC50 in series [2] was above 1000 nM.
The same measure, in the same setting: the result for `CS(=O)(=O)N[C@H]1CCCN2C(=O)COc3ncc(F)cc3[C@H]3CC[C@H](CC3)OC[C@@H]12` [Compound 64] reads below 100 nM; that for `CS(=O)(=O)N[C@H]1CCCN2CCOc3ncccc3[C@H]3CC[C@H](CC3)OC[C@@H]12` [Compound 65], 100 to 1000 nM.
